Measured values published in US9133219B2, “Bicyclic antibiotics” (Basilea Pharmaceutica AG, priority 2009, dated 2015).
Converted amounts (≈) assume the structure as drawn.

What was measured:
Format in all cases: cell-based
Escherichia coli = experiment: Anti-microbial activity assay, MIC by broth microdilution; settings: Escherichia coli; strain UB1005; read-out: MIC Escherichia coli UB1005
Experimental: (§1) Anti-Microbial Activity Assay.
(§2) The antibacterial activity of compounds is determined by the minimal inhibitory concentration (MIC) method. MICs for all bacteria except pneumococci and Haemophilus influenzae are obtained by broth microdilution with cation-adjusted Mueller-Hinton broth (CAMHB; BBL), according to CLSI guidelines (National Committee for Clinical Laboratory Standards. 2003. Methods for dilution antimicrobial susceptibility tests for bacteria that grow aerobically, 5th ed.; approved standard M7-A6. National Committee for Clinical Laboratory Standards, Wayne, Pa.), with the following modifications: (i) for pneumococci CAMHB is supplemented with 5% (^v/v) horse serum; (ii) for Haemophilus influenzae CAMHB is supplemented with 5% (^v/v) Fildes enrichment (BBL) (Pankuch, G. A., Hoellman, D. B., Lin, G., Bajaksouzian, S., Jacobs, M. R., and Appelbaum, P. C. 1998. Activity of HMR 3647 compared to those of five agents against Haemophilus influenzae and Moraxella catarrhalis by MIC determination and time-kill assay. Antimicrob. Agents Chemother. 42:3032-3034). Microtiter plates are incubated at 35° C. in ambient air for 20 to 24 h, then inspected using an illuminated microtiter plate reader fitted with a magnifying mirror (MIC 2000; Cooke Laboratory Products, Alexandria, Va.). Compounds of the present invention are tested against several bacteria strains comprising some Acinetobacter baumannii, Enterococcus faecalis, Enterococcus faecitan, Escherichia coli, Haemophilus influenzae, Klebsiella pneumoniae, Pseudomonas aeruginosa, Staphylococcus aureus, Staphylococcus epidermidis and Streptococcus pneumoniae.

Staphylococcus aureus = experiment: as above; settings: Staphylococcus aureus; strain ATCC29213; read-out: MIC Staphylococcus aureus ATCC29213
Experimental: as §1, §2

[1] = test system: Staphylococcus epidermidis; experiment: as above; settings: Staphylococcus epidermidis; strain ATCC14990
Experimental: as §1, §2

[2] = test system: Staphylococcus aureus and/or Staphylococcus epidermidis; experiment: MIC summary statement, staphylococci; settings: generally, for Staphylococcus aureus and/or Staphylococcus epidermidis
Experimental: as §1, §2

Streptococcus pneumoniae = experiment: Anti-microbial activity assay, MIC by broth microdilution (CAMHB with 5% horse serum); settings: Streptococcus pneumoniae; strain ATCC49619; CAMHB with 5% horse serum; read-out: MIC Streptococcus pneumoniae ATCC49619
Experimental: as §1, §2

[3] = test system: Staphylococcus aureus and/or Staphylococcus epidermidis and/or Streptococcus pneumoniae; experiment: MIC summary statement, staphylococci and pneumococci; settings: generally, for Staphylococcus aureus and/or Staphylococcus epidermidis and/or Streptococcus pneumoniae
Experimental: as §1, §2

SMILES	MIC (Escherichia coli) [mg/L]	MIC (Staphylococcus aureus) [mg/L]	MIC [1] [mg/L]	MIC [2] [mg/L]	MIC (Streptococcus pneumoniae) [mg/L]	MIC [3] [mg/L]
COc1ccc2ncc(OCC[C@H]3CC[C@H](NC(=O)c4ccc5c(c4)NC(=O)CS5)CC3)cc2n1 [Example 2, 3-oxo-3,4-dihydro-2H-benzo[1,4]thiazine-6-carboxylic acid {trans-4-[2-(6-methoxy-[1,5]naphthyridin-3-yloxy)-ethyl]-cyclohexyl}-amide]	> 32	≤ 2	≤ 2	≤ 2	≤ 2	≤ 2
COc1ccc2ncc(OCCN3CCC(NC(=O)c4cc(-c5cccs5)on4)CC3)nc2c1 [Example 5, 5-thiophen-2-yl-isoxazole-3-carboxylic acid {1-[2-(7-methoxy-quinoxalin-2-yloxy)-ethyl]-piperidin-4-yl}-amide]	> 32	≤ 2	≤ 2	≤ 2	≤ 2	≤ 2
O=C1CSc2ccc(C(=O)N[C@H]3CC[C@H](CCOc4cnc5ccc(F)cc5n4)CC3)cc2N1 [Example 7, 3-oxo-3,4-dihydro-2H-benzo[1,4]thiazine-6-carboxylic acid {trans-4-[2-(7-fluoro-quinoxalin-2-yloxy)-ethyl]-cyclohexyl}-amide]	> 32	≤ 2	> 32	≤ 2	> 32	–
COc1ccc2ncc(OCCCN3CC(NC(=O)c4ccc5c(c4)NC(=O)CS5)C3)nc2c1 [Example 8, 3-oxo-3,4-dihydro-2H-benzo[1,4]thiazine-6-carboxylic acid {1-[3-(7-methoxy-quinoxalin-2-yloxy)-propyl]-azetidin-3-yl}-amide]	16 (≈ 33.4 µM)	≤ 2	4 (≈ 8.34 µM)	≤ 2	16 (≈ 33.4 µM)	–
COc1ccc2ncc(OC(CN3CCC(NC(=O)c4ccc5c(c4)NC(=O)CS5)CC3)C(F)(F)F)nc2c1 (stereo not shown) [Example 14, 3-oxo-3,4-dihydro-2H-benzo[1,4]thiazine-6-carboxylic acid {1-[3,3,3-trifluoro-2-(7-methoxy-quinoxalin-2-yloxy)-propyl]-piperidin-4-yl}-amide]	> 32	≤ 2	8 (≈ 14.2 µM)	≤ 2	8 (≈ 14.2 µM)	–
COc1ccc2ncc(OCCN3CCC(NC(=O)c4cc5c(cc4Cl)SCC(=O)N5)CC3)nc2c1 [Example 15, 7-chloro-3-oxo-3,4-dihydro-2H-benzo[1,4]thiazine-6-carboxylic acid {1-[2-(7-methoxy-quinoxalin-2-yloxy)-ethyl]-piperidin-4-yl}-amide]	4 (≈ 7.58 µM)	≤ 2	≤ 2	≤ 2	8 (≈ 15.2 µM)	–
COc1ccc2ncc(OCCN3CCC(NC(=O)c4cc5c(cc4Cl)SCC(=O)N5)CC3)cc2n1 [Example 16, 7-chloro-3-oxo-3,4-dihydro-2H-benzo[1,4]thiazine-6-carboxylic acid {1-[2-(6-methoxy-[1,5]naphthyridin-3-yloxy)-ethyl]-piperidin-4-yl}-amide]	8 (≈ 15.2 µM)	≤ 2	4 (≈ 7.58 µM)	≤ 2	8 (≈ 15.2 µM)	–
COc1ccc2ccc(OCCN3CCC(NC(=O)c4ccc5c(n4)NC(=O)CS5)CC3)nc2c1 [Example 17, 3-oxo-3,4-dihydro-2H-pyrido[3,2-b][1,4]thiazine-6-carboxylic acid {1-[2-(7-methoxy-quinolin-2-yloxy)-ethyl]-piperidin-4-yl}-amide]	> 32	≤ 2	4 (≈ 8.1 µM)	≤ 2	16 (≈ 32.4 µM)	–
COc1cnc2ccc(OCCN3CCC(NC(=O)c4ccc5c(c4)NC(=O)CS5)CC3)nc2c1 [Example 18, 3-oxo-3,4-dihydro-2H-benzo[1,4]thiazine-6-carboxylic acid {1-[2-(7-methoxy-[1,5]naphthyridin-2-yloxy)-ethyl]-piperidin-4-yl}-amide]	8 (≈ 16.2 µM)	≤ 2	≤ 2	≤ 2	4 (≈ 8.1 µM)	–
COc1cnc2ccc(OCCN3CCC(NC(=O)c4cc5c(cc4Cl)SCC(=O)N5)CC3)nc2c1 [Example 19, 7-chloro-3-oxo-3,4-dihydro-2H-benzo[1,4]thiazine-6-carboxylic acid {1-[2-(7-methoxy-[1,5]naphthyridin-2-yloxy)-ethyl]-piperidin-4-yl}-amide]	4 (≈ 7.58 µM)	≤ 2	≤ 2	≤ 2	8 (≈ 15.2 µM)	–
COc1ccc2ncc(OCCN3CCC(NC(=O)c4ccc5c(n4)NC(=O)CS5)CC3)nc2c1 [Example 20, 3-oxo-3,4-dihydro-2H-pyrido[3,2-b][1,4]thiazine-6-carboxylic acid {1-[2-(7-methoxy-quinoxalin-2-yloxy)-ethyl]-piperidin-4-yl}-amide]	> 32	≤ 2	≤ 2	≤ 2	> 32	–
COc1ccc2ncc(C(=O)OC[C@H]3CC[C@H](NC(=O)c4ccc5c(c4)NC(=O)CS5)CC3)cc2c1 [Example 28, 6-methoxy-quinoline-3-carboxylic acid trans-4-[(3-oxo-3,4-dihydro-2H-benzo[1,4]thiazine-6-carbonyl)-amino]-cyclohexylmethyl ester]	> 32	≤ 2	≤ 2	≤ 2	> 32	–
COc1ccc2ncc(C(=O)OC[C@H]3CC[C@H](NCc4ccc5c(c4)OCCO5)CC3)cc2n1 [Example 29, 6-methoxy-[1,5]naphthyridine-3-carboxylic acid trans-4-[(2,3-dihydro-benzo[1,4]dioxin-6-ylmethyl)-amino]-cyclohexylmethyl ester]	> 32	≤ 2	≤ 2	≤ 2	4 (≈ 8.63 µM)	–
COc1ccc2ncc(C(=O)OC[C@H]3CC[C@H](NC(=O)c4ccc5c(n4)NC(=O)CO5)CC3)cc2n1 [Example 30, 6-methoxy-[1,5]naphthyridine-3-carboxylic acid trans-4-[(3-oxo-3,4-dihydro-2H-pyrido[3,2-b][1,4]oxazine-6-carbonyl)-amino]-cyclohexylmethyl ester]	> 32	≤ 2	4 (≈ 8.14 µM)	≤ 2	> 32	–
COc1ccc2ncc(C(=O)OC[C@H]3CC[C@H](NCCSc4cccs4)CC3)cc2n1 [Example 31, 6-methoxy-[1,5]naphthyridine-3-carboxylic acid trans-4-[2-(thiophen-2-ylsulfanyl)-ethylamino]-cyclohexylmethyl ester]	> 32	≤ 2	4 (≈ 8.74 µM)	≤ 2	8 (≈ 17.5 µM)	–
COc1ccc2ncc(SCCN3CCC(NC(=O)c4cc(-c5cccs5)on4)CC3)nc2c1 [Example 35, 5-thiophen-2-yl-isoxazole-3-carboxylic acid {1-[2-(7-methoxy-quinoxalin-2-ylsulfanyl)-ethyl]-piperidin-4-yl}-amide]	> 32	≤ 2	≤ 2	≤ 2	≤ 2	≤ 2
COc1ccc2ncc(SCCN3CCC(NC(=O)c4nc5c(cc4Cl)SCC(=O)N5)CC3)cc2c1 [Example 56, 7-chloro-3-oxo-3,4-dihydro-2H-pyrido[3,2-b][1,4]thiazine-6-carboxylic acid {1-[2-(6-methoxy-quinolin-3-ylsulfanyl)-ethyl]-piperidin-4-yl}-amide]	4 (≈ 7.35 µM)	≤ 2	4 (≈ 7.35 µM)	≤ 2	16 (≈ 29.4 µM)	–
